This passage reports apoptosis results from paper PMC8070745, “FEN1 Blockade for Platinum Chemo-Sensitization and Synthetic Lethality in Epithelial Ovarian Cancers” (Cancers, 2021).

The subject of one assay is PEO1 cells. Briefly: Annexin V apoptosis detection, PEO1. Format: cell-based, human. To be noted: FEN1i monotherapy. The protocol:
(§1) Apoptosis detection: Annexin V detection kit (556547, BD Biosciences) was used to quantify apoptotic cells. Briefly, cells were trypsinized, washed with PBS and the cellular pellet was re-suspended in Anexin Binding Buffer (1×). Following, FITC Anexin V and Propidium Iodide were added to the cells. After incubation, Anexin binding Buffer (1×) was added to each tube. All the samples were analysed on a Beckman-Coulter FC500 flow cytometer. The percentage of apoptotic cells was determined (late apoptotic = FITC-Annexin V positive, PI positive early apoptotic = FITC-Annexin V positive, PI negative; live cells = FITC-Annexin V negative, PI negative) and compared for untreated and treated samples. Graphical representation and statistical analysis was performed in GraphPad Prism 7 (GraphPad, La Jolla, USA).
3D Spheroid assays: A2780_control and A2780 FEN1_ KO as well as A2780cis_control and A2780cis FEN1_ KO cells were seeded at 4500 cells/cm2 density in ultra-low attachment 6-well plates (174932, Thermo Fisher Scientific) and cultured in 3D Tumorsphere Medium (C28070, PromoCell, UK) at 37°C in a 5% CO2 atmosphere. Cells were keep in culture for 7-10 days, toping up with fresh medium every two days until spheroids structures were formed.

The subject of the next assay is PEO4 cells. Briefly: Annexin V apoptosis detection, PEO4. The following applies: FEN1i plus cisplatin. It counts as cell-based, human. As for the experimental part:
The samples were analysed on a Beckman-Coulter FC500 flow cytometer using a 488nm laser for excitation and emission data for PI collected using a 620nm bandpass filter (FL3) and a 525nm bandpass filter (FL1) for FITC-anti-phospho-Histone H2A.X.
as §1
3D Spheroid assays: A2780_control and A2780 FEN1_ KO as well as A2780cis_control and A2780cis FEN1_ KO cells were seeded at 4500 cells/cm2 density in ultra-low attachment 6-well plates (174932, Thermo Fisher Scientific) and cultured in 3D Tumorsphere Medium (C28070, PromoCell, UK) at 37°C in a 5% CO2 atmosphere. […]

The structures appear in SMILES notation.

With `Cc1csc2c1c(=O)n(O)c(=O)n2-c1ccccc1` [PTPD, 3-hydroxy-5-methyl-1-phenylthieno [2,3 d]pyrimidine-2,4(1H,3H)-dione], the apoptosis entry is listed as “induction of apoptosis” in the assay with PEO1 cells and “accumulation of apoptotic cells” in the assay on PEO4 cells.
